Each structure is given as a SMILES string. Counter-ions that a name gives are not always drawn. Like-named read-outs stand apart in the source and are kept apart here.

The subject of data set [1] is SUDHL5. As to the kind of experiment: Induction of caspase-3/7 activity (Assay 4), SUDHL5. Format: cell-based. The note with it: SUDHL5 cells. The procedure:
(§1) Induction of Caspase-3/7 Activity Upon Treatment of Cells with Selected Compounds
The BH3-domain of MCL-1 sequesters pro-apoptotic proteins, thereby inhibiting apoptosis. In contrast, MCL-1 inhibitors are expected to antagonize this effect leading to an increase in apoptosis, which can be determined by measuring the activity of caspase-3/7.
(§2) The activity of caspase-3/7 was determined in DLBCL (Diffuse large B-cell lymphoma) cell lines (SUDHL5 and SUDHL10) upon treatment with different compounds, using the Caspase-Glo®3/7 reagent from Promega (G8092).
(§3) Rim wells were excluded. The cells were incubated for 3 hours in a humidified incubator at 37° C.
(§4) For the evaluation of the results, the background measured with “medium-only” was subtracted from all other values.

Data set [2] has as its system SUDHL10. As to the kind of experiment: Induction of caspase-3/7 activity (Assay 4), SUDHL10. Format: cell-based. The following applies: SUDHL10 cells. The procedure: as §1
In contrast, MCL-1 inhibitors are expected to antagonize this effect leading to an increase in apoptosis, which can be determined by measuring the activity of caspase-3/7.
as §2, §3, §4

The subject of data set [3] is SUDHL5. As to the kind of experiment: Antiproliferation assay 7, SUDHL5. It is filed as cell-based. The following applies: SUDHL5 cells, CellTiter-Glo, read-out: Antiproli SUDHL5 IC50 (median). The method, then: (§5) Assessment of the Anti-Proliferative Effect of Compounds in Different Cell Lines
(§6) The impact of compounds on the proliferation of different cell lines was assessed using the CellTiter-Glo® Luminescent Cell Viability reagent from Promega (G7573).
(§7) In parallel, cells were plated in a reference (day 0) plate for time zero determination.
(§8) Rim wells were excluded. The cells were incubated for 72 hours in a humidified incubator at 37° C. The day 0 plate was measured by adding 30 μL/well of CTG solution (CellTiter-Glo® Luminescent Cell Viability reagent, Promega G7573) to time zero wells in the reference plate followed by a 10 minutes incubation and luminescence reading at 0.1 ms. using the PHERAstar FS microplate reader (BMG Labtech).
(§9) After 72 hours incubation, the treated plates were measured in the same way as the day 0 plate mentioned above.

Data set [4] relates to MV-4-11. As to the kind of experiment: Antiproliferation assay 7, MV-4-11. Format: cell-based. The following applies: MV-4-11 cells, CellTiter-Glo, read-out: Antiproli MV-4-11 IC50 median. The procedure: as §5, §6, §7, §8, §9
(ATP-based viability assays read luminescence as a measure of living cells.)

In data set [5] the test system is AMO-1. The data set is described as follows: Antiproliferation assay 7, AMO-1. Format: cell-based. The following applies: AMO-1 cells, CellTiter-Glo, read-out: Antiproli AMO-1 IC50 median. The procedure:
as §5, §6, §7, §8, §9

Data set [6] concerns SUDHL5. As to the kind of experiment: Induction of cytotoxicity (Assay 6), SUDHL5.
Experimental: Assay 6 Induction of Cytotoxicity Upon Treatment of Cells with Selected Compounds
Therefore, cytotoxicity assays were run in parallel in SUDHL5 and SUDHL10 cells.
The different cell lines were plated in culture medium (RPMI 1640 [GIBCO #22400-089]supplemented with 10% Fetal Bovine Serum) at a density of 3,300 cells in 30 μL/well in a sterile, solid black, flat bottom, polystyrene, TC-treated 384-well microplate (Corning #3571) using Multidrop Combi Reagent Dispenser. As a control, medium without cells was also added to the plate. Cells were incubated in a humidified incubator at 37° C. overnight. […] Rim wells were excluded. The cells were incubated for 5 hours in a humidified incubator at 37° C. After this incubation, 30 μL of CellTiter-Glo® Luminescent Cell Viability reagent (Promega, G7573) was added to each well using the Multidrop Combi Reagent Dispenser, followed by 15 minutes incubation on a shaker at room temperature. Finally, luminescence was read at 0.1 ms, with a gain of 3000 using the PHERAstar FS microplate reader (BMG Labtech).
In data set [7] the test system is SUDHL10. As to the kind of experiment: Induction of cytotoxicity (Assay 6), SUDHL10.
Where [8] appears, read: 3 hours, Caspase-Glo 3/7, read-out: Caspase SUDHL5 EC50 (median).
Setting [9] is: 3 hours, Caspase-Glo 3/7, read-out: Caspase SUDHL10 EC50 (median).
The mark [10] stands for this setting: read-out: Cytotox SUDHL5 IC50 (median), SUDHL5 cells, 5 hours, CellTiter-Glo.
Where [11] appears, read: read-out: Cytotox SUDHL10 IC50 (median), SUDHL10 cells, 5 hours, CellTiter-Glo.
Where [12] appears, read: Homo sapiens, SU-DHL-5, 3 h, Caspase-Glo 3/7, read-out: Caspase SUDHL5 EC50 (median).
Where [13] appears, read: Homo sapiens, SU-DHL10, 3 h, Caspase-Glo 3/7, read-out: Caspase SUDHL10 EC50 (median).
Where [14] appears, read: Homo sapiens, SU-DHL-5, 5 h, read-out: Cytotox SUDHL5 IC50 (median), SUDHL5 cells, 5 hours, CellTiter-Glo.
[15] abbreviates: Homo sapiens, SU-DHL10, 5 h, read-out: Cytotox SUDHL10 IC50 (median), SUDHL10 cells, 5 hours, CellTiter-Glo.

In general, EC50 refers to the concentration that produces a half-maximal response. What is called IC50 is the concentration that gives 50% inhibition. As to `CCc1c2c(nn1C)CN(C)CCCCn1c(C(=O)O)c(CCCOc3cccc4cc(F)ccc34)c3ccc(Cl)c-2c31` (single isomer, unassigned; enantiomer 2) [Example 7, 4-chloro-3-ethyl-7-{3-[(6-fluoronaphthalen-1-yl)oxy]propyl}-2,14-dimethyl-10,11,12,13,14,15-hexahydro-2H-pyrazolo[3′,4′:8,9][1,6]diazacycloundecino[10,11,1-hi]indole-8-carboxylic Acid (Enantiomer 2)], the EC50 in data set [1] (setting [8]) worked out at 11 µM; in data set [2] (setting [9]), 16 µM. Moreover, the half-maximal inhibitory concentration (IC50) in data set [3] (72 hours) was 4.2 µM; in data set [4] (72 hours), 8.63 µM; in data set [5] (72 hours), 11.1 µM; in data set [6] (setting [10]), 7.1 µM; in data set [7] (setting [11]), 8.3 µM.

Take `CCc1nn(CCN2CCOCC2)c2c1-c1c(Cl)ccc3c(CCCOc4cccc5ccccc45)c(C(=O)O)n(c13)CCCCN(C)C2` (racemic) [Example 45, (rac)-4-chloro-3-ethyl-14-methyl-1-[2-(morpholin-4-yl)ethyl]-7-{3-[(naphthalen-1-yl)oxy]propyl}-10,11,12,13,14,15-hexahydro-1H-pyrazolo[3′,4′:8,9][1,6]diazacycloundecino[10,11,1-hi]indole-8-carboxylic Acid]: the values for the 50% effective concentration (EC50) in data set [1] (setting [12]) and in data set [2] (setting [13]) were 0.29 µM and 0.46 µM, respectively. For the same compound, the 50% inhibitory concentration (IC50) is 0.53 µM in data set [3] (Homo sapiens, SU-DHL-5, 72 h); 0.628 µM in data set [4] (Homo sapiens, MV4-11, 72 h); 0.593 µM in data set [5] (Homo sapiens, AMO1, 72 h); 0.4 µM in data set [6] (setting [14]); 0.75 µM in data set [7] (setting [15]).

For the compound `CCc1c2c(nn1C)COCCCCn1c(C(=O)O)c(CCCOc3cccc4cc(F)ccc34)c3ccc(Cl)c-2c31` (racemic) [Example 36, (rac)-4-chloro-3-ethyl-7-{3-[(6-fluoronaphthalen-1-yl)oxy]propyl}-2-methyl-2,10,11,12,13,15-hexahydropyrazolo[4′,3′:9,10][1,6]oxazacycloundecino[8,7,6-hi]indole-8-carboxylic Acid], the EC50 in data set [1] (setting [12]) came out at 0.3 µM; in data set [2] (setting [13]), 0.45 µM. The IC50 in data set [3] (Homo sapiens, SU-DHL-5, 72 h) worked out at 0.34 µM; in data set [4] (Homo sapiens, MV4-11, 72 h) it was 1.01 µM; in data set [5] (Homo sapiens, AMO1, 72 h) it was 0.286 µM; in data set [6] (setting [14]) it was 0.3 µM; in data set [7] (setting [15]), 0.64 µM.

As to `CCc1c2c(nn1C)CCCCCCn1c(C(=O)O)c(CCCOc3cccc4ccccc34)c3ccc(Cl)c-2c31` (racemic) [Example 51, (rac)-4-chloro-3-ethyl-2-methyl-7-{3-[(naphthalen-1-yl)oxy]propyl}-10,11,12,13,14,15-hexahydro-2H-pyrazolo[4′,3′:4,5]azacycloundecino[3,2,1-hi]indole-8-carboxylic Acid], the EC50 worked out at 0.8 µM in data set [1] (setting [12]) and 1.9 µM in data set [2] (setting [13]). Besides, the IC50 in data set [3] (Homo sapiens, SU-DHL-5, 72 h) came out at 1.6 µM; in data set [4] (Homo sapiens, MV4-11, 72 h) it was 1.71 µM; in data set [5] (Homo sapiens, AMO1, 72 h) it was 2.15 µM; in data set [6] (setting [14]), 0.84 µM; in data set [7] (setting [15]) it was 2 µM.

As for `CCc1nn(CCN2CCOCC2)c2c1-c1c(Cl)ccc3c(CCCOc4cccc5ccccc45)c(C(=O)O)n(c13)C/C=C\CN(C)C2` (single isomer, unassigned; enantiomer 2) [Example 44, (11Z)-4-chloro-3-ethyl-14-methyl-1-[2-(morpholin-4-yl)ethyl]-7-{3-[(naphthalen-1-yl)oxy]propyl}-10,13,14,15-tetrahydro-1H-pyrazolo[3′,4′:8,9][1,6]diazacycloundecino[10,11,1-hi]indole-8-carboxylic Acid-Ammonia Salt (Enantiomer 2)], the EC50 in data set [1] (setting [8]) was found to be 9.4 µM; in data set [2] (setting [9]) it was 13 µM. Further, the IC50 in data set [3] (72 hours) was 7.2 µM; in data set [4] (72 hours) it was 11.7 µM; in data set [5] (72 hours), 15.5 µM; in data set [6] (setting [10]), 8.1 µM; in data set [7] (setting [11]), 15 µM.

On to `CCc1nn(CCN2CCOCC2)c2c1-c1c(Cl)ccc3c(CCCOc4cccc5ccccc45)c(C(=O)O)n(c13)CCCCOC2` (single isomer, unassigned; enantiomer 2) [Example 10, 4-chloro-3-ethyl-1-[2-(morpholin-4-yl)ethyl]-7-[3-(naphthalen-1-yloxy)propyl]-1,10,11,12,13,15-hexahydropyrazolo[4′,3′:9,10][1,6]oxazacycloundecino[8,7,6-hi]indole-8-carboxylic acid-N-ethylethanamine Salt (Enantiomer 2)], for which the figures for the EC50 in data set [1] (setting [12]) and in data set [2] (setting [13]) were 6.6 µM and 14 µM, respectively. For the same compound, the half-inhibitory concentration (IC50) in data set [3] (Homo sapiens, SU-DHL-5, 72 h) was determined as 4.9 µM; in data set [4] (Homo sapiens, MV4-11, 72 h) it was 10.9 µM; in data set [6] (setting [14]), 5.2 µM; in data set [7] (setting [15]), 11 µM.

In the case of `CCc1nn(C)c2c1-c1c(Cl)ccc3c(CCCOc4cccc5cc(F)ccc45)c(C(=O)O)n(c13)CCCCN(C)C2` (single isomer, unassigned; enantiomer 2) [Example 41, 4-chloro-3-ethyl-7-{3-[(6-fluoronaphthalen-1-yl)oxy]propyl}-1,14-dimethyl-10,11,12,13,14,15-hexahydro-1H-pyrazolo[3′,4′:8,9][1,6]diazacycloundecino[10,11,1-hi]indole-8-carboxylic Acid (Enantiomer 2)], the results for the 50% effective concentration (EC50) in data set [1] (setting [8]) and in data set [2] (setting [9]) were 2.8 µM and 9.4 µM, respectively. In addition, the IC50 came out at 2.7 µM in data set [3] (72 hours); 4.89 µM in data set [4] (72 hours); 14.9 µM in data set [5] (72 hours); 4 µM in data set [6] (setting [10]); 12 µM in data set [7] (setting [11]).

On to `CCc1c2c(nn1C)COCCCCn1c(C(=O)O)c(CCCOc3cccc4cc(F)ccc34)c3ccc(Cl)c-2c31` (single isomer, unassigned; enantiomer 2) [Example 38, (−)-4-chloro-3-ethyl-7-{3-[(6-fluoronaphthalen-1-yl)oxy]propyl}-2-methyl-2,10,11,12,13,15-hexahydropyrazolo[4′,3′:9,10][1,6]oxazacycloundecino[8,7,6-hi]indole-8-carboxylic acid-N-ethylethanamine Salt (Enantiomer 2)], for which the EC50 in data set [2] (setting [9]) is 13 µM. In addition, the IC50 in data set [3] (72 hours) was found to be 1.8 µM; in data set [4] (72 hours), 13.4 µM; in data set [5] (72 hours), 11.5 µM; in data set [6] (setting [10]) it was 4.3 µM; in data set [7] (setting [11]), 14 µM.

`CCc1nn(CCN2CCOCC2)c2c1-c1c(Cl)ccc3c(CCCOc4cccc5ccccc45)c(C(=O)O)n(c13)C/C=C\CN(C)C2` (racemic) [Example 42, (rac)-(11Z)-4-chloro-3-ethyl-14-methyl-1-[2-(morpholin-4-yl)ethyl]-7-{3-[(naphthalen-1-yl)oxy]-propyl}-10,13,14,15-tetrahydro-1H-pyrazolo[3′,4′:8,9][1,6]diazacycloundecino[10,11,1-hi]indole-8-carboxylic Acid]: the EC50 amounted to 0.54 µM in data set [1] (setting [12]) and 1.3 µM in data set [2] (setting [13]). Also, the half-inhibitory concentration (IC50) is 0.22 µM in data set [3] (Homo sapiens, SU-DHL-5, 72 h); 0.975 µM in data set [4] (Homo sapiens, MV4-11, 72 h); 1.38 µM in data set [5] (Homo sapiens, AMO1, 72 h); 0.6 µM in data set [6] (setting [14]); 1.6 µM in data set [7] (setting [15]).

As to `CCc1nn(CCN2CCOCC2)c2c1-c1c(Cl)ccc3c(CCCOc4cccc5ccccc45)c(C(=O)O)n(c13)CCCCN(C)C2` (single isomer, unassigned; enantiomer 2) [Example 47, 4-chloro-3-ethyl-14-methyl-1-[2-(morpholin-4-yl)ethyl]-7-{3-[(naphthalen-1-yl)oxy]propyl}-10,11,12,13,14,15-hexahydro-1H-pyrazolo[3′,4′:8,9][1,6]diazacycloundecino[10,11,1-hi]indole-8-carboxylic Acid (Enantiomer 2)], the EC50 was 11 µM in data set [1] (setting [8]) and 22 µM in data set [2] (setting [9]). Besides, the 50% inhibitory concentration (IC50) in data set [3] (72 hours) is 8 µM; in data set [4] (72 hours), 5.65 µM; in data set [6] (setting [10]) it was 10 µM; in data set [7] (setting [11]), 17 µM.

For the origin of these results see patent US11447504B2, “Macrocyclic chlorine substituted indole derivatives” (Bayer Aktiengesellschaft, priority 2017, dated 2022).
